Entries after “also recorded” stand apart in the source; their conditions may differ.
Assays:
[1] = Amount of solvent system needed to dissolve 0.2 g of bleach catalyst (effect of surfactant on solubility); assay type: physicochemical
Description: The amount of solvent needed to dilute 0.2 g of bleach catalyst 1 was determined. Subsequently solvent systems containing a solvent and 0.06 wt. % of surfactant, based on the total weight of the solvent system, were prepared, and the amount of solvent system needed to dilute 0.2 g of bleach catalyst 1 was determined. It will be recognised that for the preparation of a supported catalyst on a carrier it is necessary to dilute the bleach catalyst in a solvent system.
The results of the amount of solvent system without surfactant and solvent system with surfactant needed to dissolve 0.2 g of bleach catalyst 1 are shown in Table 5.

[2] = Stability of bleach catalysts: UV-vis absorbance of solutions at pH 11; assay type: physicochemical
Description: The stability of bleach catalysts having the structures shown in Table 2 was determined by preparing solutions of these compounds and measuring their UV-vis absorbance.
A solution of each compound was prepared by dissolving each compound in a mixture of 50 wt. % water and 50 wt. % acetone. The concentration of each solution was 0.28 mM.
The pH of each solution was set to 11 by adding a diluted solution of sodium hydroxide.
The UV-vis absorption of each solution was measured just after preparing the samples (t=0), then at 2 h and 48 h using a UV-Vis Evolution 220 FC-1135 spectrophotometer.

[3] = t = 0, 0.28 mM in 50 wt. % water / 50 wt. % acetone
[4] = t = 48 h, 0.28 mM in 50 wt. % water / 50 wt. % acetone

SMILES | Amount of solvent system needed to dissolve 0.2 g of bleach catalyst ([1]; Acetone) [g] | Amount of solvent system needed to dissolve 0.2 g of bleach catalyst ([1]; Acetone with 0.06 wt. % surfactant (ROKAnol L7A)) [g] | Amount of solvent system needed to dissolve 0.2 g of bleach catalyst ([1]; Ethyl acetate) [g] | Amount of solvent system needed to dissolve 0.2 g of bleach catalyst ([1]; Ethyl acetate with 0.06 wt. % surfactant (ROKAnol L7A)) [g] | Amount of solvent system needed to dissolve 0.2 g of bleach catalyst ([1]; Tetrahydrofuran) [g] | Amount of solvent system needed to dissolve 0.2 g of bleach catalyst ([1]; Tetrahydrofuran with 0.06 wt. % surfactant (ROKAnol L7A)) [g] | Absorption at 445 nm [2, 3] | Appearance [2, 3] | Absorption at 445 nm [2, 4] | Appearance [2, 4]
O=S1(=O)N=C(c2ccccn2)c2ccccc21 [Bleach catalyst 1, 3-(33yridine-2-yl)-1,2-benzisothiazole-1,1-dioxide] | 5 | 2.5 | 13 | 11 | 3.5 | 2.75 | <0.05 | Transparent | <0.05 | Transparent
O=S1(=O)N=C(c2cccnc2)c2ccccc21 [Bleach catalyst 2, 3-(pyridine-3-yl)-1,2-benzisothiazole-1,1-dioxide] |  |  |  |  |  |  | <0.05 | Transparent | <0.05 | Transparent
CC1=NS(=O)(=O)c2ccccc21 [Bleach catalyst A, 3-methyl-1,2-benzisothiazole-1,1-dioxide] |  |  |  |  |  |  | <0.05 | Transparent | 0.37 | coloured/yellow; also recorded: Yellowing
O=S1(=O)N=C(c2ccccc2)c2ccccc21 [Bleach catalyst B, 3-phenyl-1,2-benzisothiazole-1,1-dioxide] |  |  |  |  |  |  | <0.05 | Transparent | <0.05 | Transparent
CC(C)(C)C1=NS(=O)(=O)c2ccccc21 [Bleach catalyst C, 3-tert-butyl-1,2-benzisothiazole-1,1-dioxide] |  |  |  |  |  |  | <0.05 | Transparent | <0.05 | Transparent

— patent US20260275249A1, “Bleach Catalyst With Improved Performance, Granule Comprising The Bleach Catalyst, And Composition Comprising Said Catalyst Or Said Granule” (Reckitt Benckiser Vanish B.V., priority 2023, published 2026)
